Article PMC10478077 (Journal of medicinal chemistry, 2019)

Experiments:
[1] = test system: H37Rv Mycobacterium tuberculosis; test: Antimicrobial susceptibility testing; assay type: cell-based; conditions: for bactericidal activity: H37Rv Mtb
Mtb fumarase = Mtb fumarase (Mycobacterium tuberculosis, UniProt P9WN93); test: Biochemical assay of Mtb fumarase enzymatic activity; conditions: for Inhibition (%) at 50 μM: 50 μM ligand concentration
Mtb = conditions: cited from earlier work

Chain of Mtb fumarase (P9WN93 whole entry): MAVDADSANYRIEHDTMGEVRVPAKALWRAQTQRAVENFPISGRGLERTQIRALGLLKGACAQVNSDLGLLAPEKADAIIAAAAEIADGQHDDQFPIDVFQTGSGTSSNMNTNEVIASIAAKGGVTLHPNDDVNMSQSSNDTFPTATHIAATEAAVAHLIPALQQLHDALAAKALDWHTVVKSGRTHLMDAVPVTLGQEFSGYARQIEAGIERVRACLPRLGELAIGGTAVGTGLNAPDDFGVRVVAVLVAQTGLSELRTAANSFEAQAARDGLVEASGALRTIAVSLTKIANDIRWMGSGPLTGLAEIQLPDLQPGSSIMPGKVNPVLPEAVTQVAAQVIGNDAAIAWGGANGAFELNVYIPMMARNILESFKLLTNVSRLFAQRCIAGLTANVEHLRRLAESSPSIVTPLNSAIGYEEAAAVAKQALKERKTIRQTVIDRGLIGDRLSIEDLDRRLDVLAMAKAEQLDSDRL

COc1ccc(S(=O)(=O)N2CCCCCCC2)cc1NC(=O)Cc1n[nH]c(=O)c2ccccc12 [Compound 16b, N-(5-(Azocan-1-ylsulfonyl)-2-methoxyphenyl)-2-(4-oxo-3,4-dihydrophthalazin-1-yl)acetamide]
H37Rv Mtb MIC ([1]; 7H9/DPPC medium): highly active | bactericidal activity [1]: activity was observed

COc1ccc(S(=O)(=O)N2CCCCCC2)cc1NC(=O)Cn1cnc2ccccc21 [Compound 15f, N-(5-(Azepan-1-ylsulfonyl)-2-methoxyphenyl)-2-(1H-benzo[d]imidazol-1-yl)acetamide]
Inhibition (%) at 50 μM (Mtb fumarase): failed to provide inhibition

COc1ccc(S(=O)(=O)N2CCc3ccccc3CC2)cc1NC(=O)Cc1n[nH]c(=O)c2ccccc12 [Compound 16l, N-(2-Methoxy-5-((1,2,4,5-tetrahydro-3H-benzo[d]azepin-3-yl)sulfonyl)phenyl)-2-(4-oxo-3,4-dihydrophthalazin-1-yl)acetamide]
IC50 fold lower than that of 1 (Mtb fumarase; relative to 1 (IC50 2.0 μM)): 3 fold

COc1ccc(S(=O)(=O)N2CCCCCC2)cc1NC(=O)Cc1nnc(O)c2ccccc12 [Compound 1, N-(5-(Azepan-1-ylsulfonyl)-2-methoxyphenyl)-2-(4-oxo-3,4-dihydrophthalazin-1-yl)acetamide]
bactericidal activity [1]: no bactericidal activity | bactericidal properties (Mtb): did not exhibit bactericidal properties

COc1ccc(S(=O)(=O)N2CCCCCC2)cc1NC(=O)Cc1noc2ccccc12 [Compound 15e, N-(5-(Azepan-1-ylsulfonyl)-2-methoxyphenyl)-2-(benzo[d]isoxazol-3-yl)acetamide]
Inhibition (%) at 50 μM (Mtb fumarase): failed to provide inhibition

COc1ccc(S(=O)(=O)N2CCCCCC2)cc1NC(=O)Cc1coc2ccccc12 [Compound 15d, N-(5-(Azepan-1-ylsulfonyl)-2-methoxyphenyl)-2-(benzofuran-3-yl)acetamide]
Inhibition (%) at 50 μM (Mtb fumarase): failed to provide inhibition

COc1ccc(S(=O)(=O)N2CCCCCC2)cc1NC(=O)Cc1ccncc1 [Compound 15i, N-(5-(Azepan-1-ylsulfonyl)-2-methoxyphenyl)-2-(pyridin-4-yl)acetamide]
Inhibition (%) at 50 μM (Mtb fumarase): eliminated inhibitory activity
